Source: patent US7381749B2, “Sulfonamides as inhibitors of histone deacetylase for the treatment of disease” (Kalypsys, Inc., priority 2004, dated 2008)

How the values were obtained:
[1] = test system: HDAC; assay: In vitro HDAC-inhibition assay (Fluor de Lys fluorescent substrate); assay type: biochemical; conditions: HDAC enzyme source (e.g. partially purified nuclear extract or immunopurified HDAC complexes)
Experimental: In vitro HDAC-Inhibition Assay:
This assay measures a compound's ability to inhibit acetyl-lysine deacetylation in vitro and was used as both a primary screening method as well as for IC50 determinations of confirmed inhibitors. The assay is performed in vitro using an HDAC enzyme source (e.g. partially purified nuclear extract or immunopurified HDAC complexes) and a proprietary fluorescent substrate/developer system (HDAC Quantizyme Fluor de Lys Fluorescent Activity Assay, BIOMOL). The assay is run in 1,536-well Greiner white-bottom plates using the following volumes and order of addition: • Step 1: Enzyme (2.5 ul) source added to plate (from refrigerated container) • Step 2: Compounds (50 nl) added with pin transfer device • Step 3: Fluor de Lys (2.5 ul) substrate added, incubate at RT, 30 minutes • Step 4: Developer (5 ul) solution is added (containing TSA), to stop reaction • Step 5: Plate Reader—data collection • The deacetylated fluorophore is excited with 360 nm light and the emitted light (460 nm) is detected on an automated fluorometric plate reader (Aquest, Molecular Devices).

[2] = test system: HDAC in cells; assay: Cellular IC50 (cellular assays: histone hyperacetylation cytoblot / differential cytotoxicity); assay type: cell-based; conditions: transformed cell lines (e.g. HeLa, A549, MCF-7); cell line not specified
Experimental: These two secondary assays evaluates a compound's ability to inhibit HDAC in cells by measuring cellular histone acetylation levels. The cytoblot facilitates quantitative EC50 information for cellular HDAC inhibition. Transformed cell lines (e.g. HeLa, A549, MCF-7) are cultured under standard media and culture conditions prior to plating.
Cells (approx. 2,500/well) are allowed to adhere 10-24 hours to wells of a 384-well Greiner PS assay plate in media containing 1-5% serum. Cells are treated with appropriate compound and specific concentrations for 0 to 24 hours. Cells are washed once with PBS (60 ul) and then fixed (95% ethanol, 5% acetic acid or 2% PFA) for 1 minute at RT (30 ul). Cells are blocked with 1% BSA for 1 hour and washed and stained with antibody (e.g. anti-Acetylated Histone H3, Upstate Biotechnology), followed by washing and incubation with an appropriate secondary antibody conjugated to HRP or fluorophore. For luminescence assays, signal is generated using Luminol substrate (Santa Cruz Biotechnology) and detected using an Aquest plate reader (Molecular Devices).
Differential Cytotoxicity Assay:
HDAC inhibitors display differential cytotoxicity toward certain transformed cell lines. Cells are cultured according to standard ATCC recommended conditions that are appropriate to each cell type. Compounds were tested for their ability to kill different cell types (normal and transformed) using the ATPlite luminescence ATP detection assay system (Perkin Elmer). Assays are run in either 384-well or 1536-well Greiner PS plates. Cells (30 ul or 5 ul, respectively) are dispensed using either multichannel pipette for 384-well plates, or proprietary Kalypsys bulk liquid dispenser for 1536-well plates. Compounds added using proprietary pin-transfer device (500 nL or 5 nL) and incubated 5 to 30 hours prior to analysis. Luminescence is measured using Aquest plate reader (Molecular Devices).

With `CC(=O)SCC(=O)c1ccc(NS(=O)(=O)c2ccc(OC(F)(F)F)cc2)cc1F` [Example 47, Thioacetic acid S-{2-[2-fluoro-4-(4-trifluoromethoxy-benzenesulfonylamino)-phenyl]-2-oxo-ethyl}ester] the IC50 [1] was < 1000 nM and the IC50 [2] was < 1000 nM.
With `CC(=O)SCC(=O)c1ccc2c(c1)CCN2S(=O)(=O)c1ccccc1` [Example 48, Thioacetic acid S-[2-(1-benzenesulfonyl-2,3-dihydro-1H-indol-5-yl)-2-oxo-ethyl]ester] the IC50 [1] was < 1000 nM and the IC50 [2] was < 10000 nM.
For `CC(=O)SCC(=O)c1ccc2c(ccn2S(=O)(=O)c2ccccc2)c1` [Example 49, Thioacetic acid S-[2-(1-benzenesulfonyl-1H-indol-5-yl)-2-oxo-ethyl]ester], the IC50 [1] was < 1000 nM and the IC50 [2] was < 1000 nM.
For `COc1cccc(S(=O)(=O)Nc2ccc(C(=O)CSC(C)=O)cn2)c1` [Example 50, Thioacetic acid S-{2-[6-(3-methoxy-benzenesulfonylamino)-pyridin-3-yl]-2-oxo-ethyl}ester], the IC50 [1] was < 1000 nM and the IC50 [2] was < 1000 nM.
For `CC(=O)SCC(=O)c1ccc(NS(=O)(=O)c2ccccn2)cc1` [Example 51, Thioacetic acid S-{2-oxo-2-[4-(pyridine-2-sulfonylamino)-phenyl]-ethyl}ester], the IC50 [1] was < 1000 nM and the IC50 [2] was < 1000 nM.
In the case of `CC(=O)SCC(=O)c1ccc(NS(=O)(=O)c2cccnc2)cc1` [Example 52, Thioacetic acid S-{2-oxo-2-[4-(pyridine-3-sulfonylamino)-phenyl]-ethyl}ester], the IC50 [1] is reported as < 1000 nM and the IC50 [2] is reported as < 10000 nM.
In the case of `CC(=O)SCC(=O)c1ccc2c(c1)CCN2S(=O)(=O)c1ccccn1` [Example 53, Thioacetic acid S-{2-oxo-2-[1-(pyridine-2-sulfonyl)-2,3-dihydro-1H-indol-5-yl]-ethyl}ester], the IC50 [1] is reported as < 1000 nM and the IC50 [2] is reported as < 1000 nM.
